Measured values: patent US20090197856A1, “ANTIVIRAL COMPOUNDS” (Genelabs Technologies, Inc., priority 2007, published 2009)
pIC50: −log10 of the molar value. Where two headings read alike, the source gives them in different places.

Experiments:
[1] = target: T1, NS5B (Hepatitis C virus genotype 1b, UniProt Q9WMX2); assay: Polymerase assay, incorporation of radiolabeled GTP with biotinylated oligoG13 primer and polycytidylic acid RNA template; type: biochemical; conditions: polyC RNA template, biotin-oligoG13 primer, tritiated GTP, 3 nM NS5B, 30° C., 2 hours
T1 construct: 3 nM NS5B, 20 nM polyC RNA template
Experimental: The polymerase activity was also assayed by measuring incorporation of radiolabeled GTP into an RNA product using a biotinylated oligoG13 primer with a polycytidylic acid RNA template. Typically, the assay mixture (40 μL) contains 50 mM HEPES (pH 7.3), 2.5 mM magnesium acetate, 2 mM sodium chloride, 37.5 mM potassium acetate, 5 mM DTT, 0.4 U/mL RNasin, 2.5% glycerol, 3 nM NS5B, 20 nM polyC RNA template, 20 nM biotin-oligoG13 primer, and 0.2 μM tritiated guanosine triphosphate. Test compounds were initially dissolved and diluted in 100% DMSO and further diluted into aqueous buffer, producing a final concentration of 5% DMSO. Typically, compounds were tested at concentrations between 0.2 nM and 10 μM. Reactions were started with addition of tritiated guanosine triphosphate and allowed to continue at 30° C. for 2 hours. Reactions were quenched with 100 μL stop buffer containing 10 mM EDTA and 1 μg/mL streptavidin-coated scintillation proximity beads. Reaction plates were incubated at 4° C. for 10 hours and then incorporation of radioactivity was determined by scintillation counting. The table below lists the IC50 values of compounds determined using this procedure.

[2] = target: T2, HCV-NS5b (Hepatitis C virus genotype 1b, UniProt Q9WMX2); assay: HCV-NS5b enzyme assay using homopolymer substrate; type: biochemical
T2 construct: (His)6 (C); made in house; host or cells: XL-1 cells (E. coli), IPTG-inducible plasmid
Excerpt: The coding sequence of NS5b protein was cloned by PCR from pFKI389luc/NS3-3′/ET as described by Lohmann, V., et al. (1999) Science 285, 110-113 using the primers shown on page 266 of WO 2005/012288
The cloned fragment is missing the C terminus 21 amino acid residues. The cloned fragment was inserted into an IPTG-inducible (isopropyl-β-D-thiogalactopyranoside) expression plasmid that provides an epitope tag (His)6 at the carboxy terminus of the protein.
The recombinant enzyme was expressed in XL-1 cells and after induction of expression, the protein was purified using affinity chromatography on a nickel-NTA (nitrilotriacetic acid) column. Storage condition was 10 mM Tris-HCl pH 7.5, 50 mM NaCl, 0.1 mM EDTA (ethylenediaminetetraacetic acid), 1 mM DTT (dithiothreotol), 20% glycerol at −20° C.
The polymerase activity was assayed by measuring incorporation of radiolabeled UTP into a RNA product using a biotinylated, homopolymeric template. The template was formed by annealing adenosine homopolymer to uridine 20-mer capped with a 5′-biotin group (biotin-U^20) in the ratio of 1:4. Typically, the assay mixture (50 μL) contained 25 mM Tris-HCl (pH 7.5), 40 mM KCl, 0.3 mM MgCl2, 0.05 mM EDTA, 0.2 unit/μL Superase RNAse Inhibitor, 5 mM DTT, 30 μM UTP (Uridine triphosphate), including [^3H]-UTP (uridine triphosphate) at 0.4 μCi/μL with final concentration of 1 μM, and 50 nM of homopolymeric template. Test compounds were initially dissolved in 100% DMSO and further diluted in aqueous buffer containing 5% DMSO. Typically, compounds were tested at concentrations between 2 nM and 50 μM. Reactions were started with addition of enzyme and allowed to continue at 30° C. for 90 minutes. Reactions were quenched with 8 μL of 100 mM EDTA and reaction mixtures (30 μL) were transferred to streptavidin-coated scintillation proximity microtiter plates (FlashPlates) and incubated at room temperature overnight. Incorporation of radioactivity was determined by scintillation counting.
Inhibitor IC50 values were determined by adding test compound as ten point, two-fold serial dilutions in 100% DMSO with a final reaction concentration of 5%. IC50 was calculated by plotting the % inhibition against compound concentration and fitting the data to a constrained four parameter sigmoidal curve, equivalent to the “four parameter logistic equation”:
Where Bottom is the minimum Y value, Top is the maximum Y value, and Hillslope is the slope of the linear portion of the semi-log curve. Top and Bottom were constrained to values of 0% and 100%, respectively. These analyses were performed using Graphpad Prism v.4.0 (Graphpad Software, Inc.) in conjunction with DS Accord for EXCEL 6.0 (Accelrys, Microsoft Corp.).
The table below lists the IC50 values of compounds determined using the homopolymer substrates.

[3] = homopolymer substrate, [3H]-UTP incorporation, 30° C., 90 minutes, read-out: IC50

Structure (SMILES)	pIC50 [2, 3]	other results
CC1(C)C(=O)N2CCCn3c(c(C4CCCCC4)c4ccc(C(=O)O)cc43)-c3cccc1c32 [Compound 265, 12-cyclohexyl-1,1-dimethyl-2-oxo-1,2,5,6-tetrahydro-4H-[1,5]diazocino[1,2-a:5,4,3-h′i′]diindole-9-carboxylic acid]		pIC50 [1]: 8.05
CS(=O)(=O)CCNCc1cn2c3c(cccc13)-c1c(C3CCCCC3)c3ccc(C(=O)O)cc3n1CCC2 [Compound 391]	6.68	
O=C(O)c1ccc2c(C3CCCCC3)c3n(c2c1)CCCn1cc(CNCCO)c2cccc-3c21 [Compound 388]	6.80	
O=C(O)c1ccc2c(C3CCCCC3)c3n(c2c1)CCN1CCC(NC2CCCCC2)c2cccc-3c21 (stereo not drawn) [compound 281]	7.21	
O=C(O)c1ccc2c(C3CCCCC3)c3n(c2c1)CCCn1cc(CN2CCCC(F)C2)c2cccc-3c21 (stereo not drawn) [Compound 353]	6.96	
CCC1CN2CCCn3c(c(C4CCCCC4)c4ccc(C(=O)O)cc43)-c3cccc1c32 (stereo not drawn) [Compound 403]	6.68	
COc1ccc2c3c1c(CNC(C)C)cn3CCCn1c-2c(C2CCCCC2)c2ccc(C(=O)O)cc21 [Compound 463]	5.69	
CCN1CCN(Cc2cn3c4c(cccc24)-c2c(C4CCCCC4)c4ccc(C(=O)O)cc4n2CCC3)CC1 [Compound 356]	6.92	
O=C(O)c1ccc2c(C3CCCCC3)c3n(c2c1)CCCn1cc(CN2CCOCC2)c2cccc-3c21 [Compound 107]	7.72	
CC1Cn2cc(CN3CCCCC3)c3cccc(c32)-c2c(C3CCCCC3)c3ccc(C(=O)O)cc3n2C1 (stereo not drawn) [Compound 396]	6.90	
CN1CCN(C(=O)c2cn3c4c(cccc24)-c2c(C4CCCCC4)c4ccc(C(=O)O)cc4n2CCC3)CC1 [Compound 439]		pIC50 [2]: 6.74
CN(C)Cc1cn2c3c(cccc13)-c1c(C3CCCCC3)c3ccc(C(=O)O)cc3n1CCCC2 [Compound 112]	6.96	
O=C(O)c1ccc2c(C3CCCCC3)c3n(c2c1)CCCn1cc(CN2CC[C@H](F)C2)c2cccc-3c21 [Compound 354]	6.96	
CCC(C)(C)NCc1cn2c3c(cccc13)-c1c(C3CCCCC3)c3ccc(C(=O)O)cc3n1CCC2 [Compound 393]	6.86	
O=C(O)c1ccc2c(C3CCCCC3)c3n(c2c1)CCCn1cc(CN2CCC(F)CC2)c2cccc-3c21 [Compound 352]	7.05	
CON(C)Cc1cn2c3c(cccc13)-c1c(C3CCCCC3)c3ccc(C(=O)O)cc3n1CCC2 [Compound 387]	6.74	
CN1CCN(Cc2cc3cccc4c3n2CCCn2c-4c(C3CCCCC3)c3ccc(C(=O)O)cc32)CC1 [Compound 415]	6.77	
CCN(C)Cc1cn2c3c(cccc13)-c1c(C3CCCCC3)c3ccc(C(=O)O)cc3n1CC2 [Compound 351]	7.25	
CCCNC1CCN2CCn3c(c(C4CCCCC4)c4ccc(C(=O)O)cc43)-c3cccc1c32 (stereo not drawn) [Compound 277]	7.25	
C[C@@H]1CC[C@@H](C)N1Cc1cn2c3c(cccc13)-c1c(C3CCCCC3)c3ccc(C(=O)O)cc3n1CCC2 [Compound 392]	6.98	
COCCNCc1cn2c3c(cccc13)-c1c(C3CCCCC3)c3ccc(C(=O)O)cc3n1CCC2 [Compound 381]	6.93	
O=C(O)c1ccc2c(C3CCCCC3)c3n(c2c1)CCn1cc(CN2CCCCC2)c2cccc-3c21 [Compound 118]	7.32	
N=C(N)c1cn2c3c(cccc13)-c1c(C3CCCCC3)c3ccc(C(=O)O)cc3n1CCC2 [Compound 446]	6.77	

Structure (SMILES)	pIC50 [2, 3]	other results
CN(C)CCNCc1cn2c3c(cccc13)-c1c(C3CCCCC3)c3ccc(C(=O)O)cc3n1CCC2 [Compound 368]	6.52	
CC1CCN(Cc2cn3c4c(cccc24)-c2c(C4CCCCC4)c4ccc(C(=O)O)cc4n2CCC3)CC1 [Compound 117]	6.97	
CC(C)NCCCc1cn2c3c(cccc13)-c1c(C3CCCCC3)c3ccc(C(=O)O)cc3n1CCC2 [Compound 433]	6.74	
COC1CCCN(Cc2cn3c4c(cccc24)-c2c(C4CCCCC4)c4ccc(C(=O)O)cc4n2CCC3)C1 (stereo not drawn) [Compound 124]	6.94	
CCN(C)Cc1cn2c3c(cccc13)-c1c(C3CCCCC3)c3ccc(C(=O)O)cc3n1CCC2 [Compound 129]	7.02	
CN(C)Cc1cn2c3c(cccc13)-c1c(C3CCCCC3)c3ccc(C(=O)O)cc3n1CCC2 [Compound 111]	6.97	
CCN(C)Cc1cn2c3c(ccc(OC)c13)-c1c(C3CCCCC3)c3ccc(C(=O)O)cc3n1CCC2 [Compound 462]	6.38	
CC(C)N1Cc2c(n3c4c(cccc24)-c2c(C4CCCCC4)c4ccc(C(=O)O)cc4n2CCC3)C1=O [Compound 419]	6.74	
O=C(O)c1ccc2c(C3CCCCC3)c3n(c2c1)CCCn1cc(CN2CCSCC2)c2cccc-3c21 [Compound 128]	7.00	
CCN(CC)CCCc1cn2c3c(cccc13)-c1c(C3CCCCC3)c3ccc(C(=O)O)cc3n1CCC2 [Compound 436]	6.48	
CC(C)NCCC(=O)c1cn2c3c(cccc13)-c1c(C3CCCCC3)c3ccc(C(=O)O)cc3n1CCC2 [Compound 430]		pIC50 [2]: 7.14
CN1CCN(C(=O)c2cc3cccc4c3n2CCCn2c-4c(C3CCCCC3)c3ccc(C(=O)O)cc32)CC1 [Compound 409]	6.94	
CN1CCN(C(=O)c2c(Cl)c3cccc4c3n2CCCn2c-4c(C3CCCCC3)c3ccc(C(=O)O)cc32)CC1 [Compound 412]	6.75	
CCN(C)Cc1c(C(=O)N(C)C)n2c3c(cccc13)-c1c(C3CCCCC3)c3ccc(C(=O)O)cc3n1CCC2 [Compound 410]	6.42	
C=C1Cn2cc(CN3CCCCC3)c3cccc(c32)-c2c(C3CCCCC3)c3ccc(C(=O)O)cc3n2C1 [Compound 341]	6.87	
O=C(O)c1ccc2c(C3CCCCC3)c3n(c2c1)CCCn1cc(Cl)c2cccc-3c21 [Compound 455]	6.80	
O=C(O)CNCc1cn2c3c(cccc13)-c1c(C3CCCCC3)c3ccc(C(=O)O)cc3n1CCC2 [Compound 380]	7.03	
CN(C)C1CCN2CCn3c(c(C4CCCCC4)c4ccc(C(=O)O)cc43)-c3cccc1c32 (stereo not drawn) [Compound 285, 15-Cyclohexyl-4-(dimethylamino)-5,6,8,9-tetrahydro-4H-indolo[1′,2′:4,5][1,4]diazepino[6,7,1-ij]quinoline-12-carboxylic acid]	7.10	
COc1ccc2c3c1ccn3CCCn1c-2c(C2CCCCC2)c2ccc(C(=O)O)cc21 [Compound 460]	6.68	
O=C(O)c1ccc2c(C3CCCCC3)c3n(c2c1)CCCn1ccc2c(Cl)ccc-3c21 [Compound 456]	6.90	
O=C(O)c1ccc2c(C3CCCCC3)c3n(c2c1)CCCn1cc(CN2CC[C@@H](F)C2)c2cccc-3c21 [Compound 126]	7.02	
CN(C)Cc1cc2cccc3c2n1CCCn1c-3c(C2CCCCC2)c2ccc(C(=O)O)cc21 [Compound 411]	6.56	
